These results are taken from patent US8314247B2, “Hydrazone derivative” (Mitsubishi Tanabe Pharma Corporation, priority 2007, dated 2012).

The target of this assay is T1, human-liver type GST-GK (Homo sapiens, UniProt P35557).
T1 construct: made in house; host or cells: E. coli
T1 sequence (P35557 1-466 isoform P35557-2): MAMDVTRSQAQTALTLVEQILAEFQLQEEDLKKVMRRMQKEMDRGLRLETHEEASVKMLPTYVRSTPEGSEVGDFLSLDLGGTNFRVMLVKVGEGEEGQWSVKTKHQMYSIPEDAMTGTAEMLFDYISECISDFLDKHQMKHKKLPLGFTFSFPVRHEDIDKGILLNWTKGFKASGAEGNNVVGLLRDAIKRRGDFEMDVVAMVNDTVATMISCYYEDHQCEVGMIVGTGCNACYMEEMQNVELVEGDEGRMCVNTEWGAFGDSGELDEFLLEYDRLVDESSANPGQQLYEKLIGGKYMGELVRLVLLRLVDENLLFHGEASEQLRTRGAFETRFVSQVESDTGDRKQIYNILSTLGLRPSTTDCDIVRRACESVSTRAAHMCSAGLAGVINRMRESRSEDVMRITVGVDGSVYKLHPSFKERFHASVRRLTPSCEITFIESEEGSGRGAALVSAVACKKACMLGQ
The assay can be described thus: Glucokinase activation effect (G6PDH-coupled NADPH assay). The settings on record: glucose 5 mM, ATP 5 mM, 30° C., NADPH monitored at 340 nm for 10 minutes, compound 0.01 to 100 μM (5% DMSO). The class given is biochemical. The method, then: A glucokinase activity was examined by measuring the amount of NADPH obtained in generating 6-phosphogluconic acid from […], not by directly measuring the generated glucose-6-phosphoric acid. The glucokinase enzyme used in the examination was human-liver type GST-GK expressed by E. Coli. The measurement of the activity was carried out by the following procedures. Specifically, 30 mM HEPES buffer (pH7.4) containing 30 mM MgCl2, 30 mM KCl, 1 mM DTT, 5 mM NADP (Nacalai), 0.7 mU/mL G6PDH (Roche 737-232 grade II from yeast) and 0.17 μL/mL GST-GK was prepared as a reaction solution. An evaluating compound dissolved in DMSO was added to the reaction solution to give a final concentration of 0.01 to 100 μM (5% DMSO). Thereto was added glucose (final concentration of 5 mM) as a substrate and was added ATP (final concentration of 5 mM) to proceed the reaction. The reaction temperature is 30° C. and a generation of NADPH was monitored by changes of absorbance of 340 nm. An increase of absorbance for 10 minutes after starting reaction was measured and the blank-corrected value was used as a GK activity (mOD/min). EC50 level was calculated by a GK activity level in an addition of the evaluating compound at each concentration.
As usually defined, the EC50 is the midpoint of the concentration-response curve. A higher EC50 goes with a need for much substance. `COc1ccc2nc(NC(=O)/C(=N/N3CCCC3)c3ccc(S(=O)(=O)C4CC4)cc3)sc2n1` [Example 1] gave an EC50 of 0.07 µM. `O=C(Nc1ncc(F)s1)/C(=N/N1CCOCC1)c1ccc(S(=O)(=O)C2CC2)cc1` [Example 2] gave an EC50 of 0.36 µM. Next, `O=C(Nc1ncc(Br)s1)/C(=N/N1CCCC1)c1ccc(S(=O)(=O)C2CC2)cc1` [Example 24]: 0.03 µM; `CN1CCN(S(=O)(=O)c2cnc(NC(=O)/C(=N/N3CCCC3)c3ccc(S(=O)(=O)C4CC4)cc3)s2)CC1` [Example 27]: 0.22 µM; `O=C(Nc1ncc(Cl)s1)/C(=N/N1CCOCC1)c1ccc(S(=O)(=O)C2CC2)cc1` [Example 42]: 0.11 µM. To `CN(C)S(=O)(=O)c1cnc(NC(=O)/C(=N/N2CCCC2)c2ccc(S(=O)(=O)C3CC3)cc2)s1` [Example 64] belongs 0.12 µM.
